Patent US20120189579A1 (priority 2009, published 2012)

Experiments:
[1] = target: T1, HCV NS5BΔ21/Gal4-DBD fusion protein (Hepatitis C virus genotype 1b, UniProt Q9WMX2); assay: 3D-SCREEN assay (NS5B reporter gene assay in Huh-7 cells); format: cell-based, HCV genotype 1b
T1 construct: The protein was expressed with a 21 amino acid C-terminal deletion to remove transmembrane domain; expressed in transfected cells; host or cells: Huh-7 (transient transfection)
Protocol: (§1) Human Hepatoma Huh-7 cell line was maintained in DMEM/HAMF-12 supplemented with 10% SVF, 4 mM glutamine, […] Na pyruvate, 1% penistreptomycine. HCV replicon containing Huh-7 cell lines Huh-9.13 and Luc Neo ET (Reblikon) were maintained in DMEM supplemented with 10% SVF, 2 mM glutamine, and 1×NEAA, 100 U/ml penicillin, and 100 μg/ml streptomycine. Replicon cells were maintained in medium supplemented with 1 mg/ml G418 for replicon Huh-9.13 and 0.5 mg/ml for Luc Neo et replicon unless indicated otherwise. Huh-7 and HCV replicon cell lines were maintained at 37° C. and 5% CO2 in a humidified atmosphere. Cells were dissociated at sub confluence with trypsin EDTA 1×.
cDNA encoding HCV NS5B genotype 1b, was cloned in frame with Gal4-DNA Binding Domain. The protein was expressed with a 21 amino acid C-terminal deletion to remove transmembrane domain. Expression of NS5BΔ21/Gal4 DBD fusion protein was under control of SV40 early promoter. 3D-Sensor peptide was cloned in frame with VP16 activation domain. Expression of 3D-Sensor/VP16 AD fusion protein was under control of CMV promoter. Expression of the firefly luciferase reporter gene was inducible by the [Target protein/conformation sensitive peptide/VP16AD] complex.
It is a single-target, cell based assay. Briefly, expression of a reporter gene depends on the interaction of a short peptide, thereafter named 3D-Sensor, and native conformation of the target protein. Whenever the conformation of the target protein is modified, interaction between 3D-sensor and target protein is disrupted and reporter gene is not expressed anymore. Conformation modifiers are identified by loss of expression of reporter gene. NS5B 3D-Screen platform was generated in Huh-7 cell lines by transient transfection of three expression vectors encoding respectively • (i) HCV NS5BΔ21/Gal4-DBD fusion protein • (ii) the 3D-sensor peptide 14/VP16 fusion protein • (iii) the firefly luciferase reporter gene
Huh-7 cells were dissociated the day before transfection and seeded in T175 flasks at a density of 10^7 cells in 30 ml culture medium. Equimolar ratios of vectors were transfected in cell according to optimized jetPEI transfection protocol (PolyPlus Transfection, Illkirch, France) and 10 μg total DNA/10^6 cells. Transfection was performed for 2 hours at 37° C. and 5% CO2 in a humidified atmosphere. After two hours cells were dissociated and seeded in 96 wells plates at a density of 25,000 cells per well and 90 μl culture medium. 10 μl of compounds to be tested were added 2 hours after seeding. Final concentration of DMSO was 1%. Cells were incubated in the presence of compounds for 24 hours after which expression of firefly luciferase reporter gene was quantified. Briefly, culture medium was removed and cells were lysed by addition of 100 μl of lysis buffer containing 125 mM Tris Phosphate ph 7.8, 10 mM EDTA, 5 mM DTT, 50% glycerol and 5% Triton. Plates were vortexed 10 min at 1300 rpm. Cell lysat was transferred in OpaqueWhite Assay 96 well Flat Bottom plates. 100 μl of luciferin solution 1× were added to each well. Luciferin solution contained 40 mM Tris Phosphate ph 7.8, 0.2 mM EDTA, 67 mM DTT, 2.14 mM MgCl2, 5.4 mM MgSO4, 4.7×10^−4 M luciferin, 5.3×10^−4 M ATP and 2.7×10^−4 M Acetyl co enzyme A. Luminescence was immediately measured with Berthold Microlumat Plus LB 96V luminometer with an integration of 0.5 sec. Inhibition was calculated using the formula: % inhibition=(1−(read/average max))*100. Average max=signal in absence of compound

[2] = system: HCV replicon Luc Neo ET in Huh-7 cells; assay: Replicon assay (Luc Neo ET replicon); format: cell-based; details: Hepatitis C virus, 72 hours with compound, firefly luciferase reporter, read-out: EC50—Replicon LucneoET
Protocol: as §1
Replicon Luc Neo ET is a bicistronic expression constructs (Lohmann et al, 1999, Science 285, 110-113). In brief, the structural genes of the HCV genome were replaced by heterologous sequences; the gene encoding the neomycin phosphotransferase (NPT) and the internal ribosome entry site (IRES) of the encephalomyocarditis virus (EMCV). The bicistronic construct is therefore composed of the following elements: HCV-IRES nucleotides 1-389, the NPT gene, the EMCV-IRES directing translation of downstream HCV sequences from NS2 or NS3 up to the authentic 3′ end of the genome. HCV Polyprotein harbours the cell culture adaptive mutations E1202G, T1280I, K1846T. G418-resistance is only possible with cells containing high amounts of replicon.
Cells were dissociated the day before addition of compounds and seeded in 96 well-plates at a final concentration of 77 777.77 cells·ml^−1·well^−2 in 90 μl final volume of culture medium per well and were maintained at 37° C. and 5% CO2 in a humidified atmosphere for 24 hours. 10 μl of compounds to be tested were added 24 hours after seeding. Final concentration of DMSO was 1%. Cells were incubated in the presence of compounds for 72 hours after which expression of firefly luciferase reporter gene was quantified. Briefly, culture medium was removed and cells were lysed by addition of 100 μl of lysis buffer containing 125 mM Tris Phosphate ph 7.8, 10 mM EDTA, 5 mM DTT, 50% glycerol and 5% Triton. Plates were vortexed 10 min at 1300 rpm. Cell lysat was transferred in OpaqueWhite Assay 96 well Flat Bottom plates. 100 μl of luciferin solution 1× were added to each well. Luciferin solution contained 40 mM Tris Phosphate ph 7.8, 0.2 mM EDTA, 67 mM DTT, 2.14 mM MgCl2, 5.4 mM MgSO4, 4.7×10^−4 M luciferin, 5.3×10^−4 M ATP and 2.7×10^−4 M Acetyl co enzyme A. Luminescence was immediately measured with Berthold Microlumat Plus LB 96V luminometer with an integration of 0.5 sec Inhibition was calculated using the formula:
% inhibition=1−[(RLUsample−RLUbackground)/(RLUsignal−RLUbackground)]

Row | Structure (SMILES) | EC50 [1] [µM] | EC50 [2] [µM] | melting point [°C]
1 | O=C(O)c1ccc(C2C(C(=O)c3ccco3)=C(O)C(=O)N2c2ncc(S(=O)(=O)c3ccc([N+](=O)[O-])cc3)s2)cc1 (stereo not shown) [Example 112, 4-{3-(furan-2-carbonyl)-4-hydroxy-1-[5-(4-nitro-benzenesulfonyl)-thiazol-2-yl]-5-oxo-2,5-dihydro-1H-pyrrol-2-yl}-benzoic acid] | < 10 | < 10 | 
2 | COc1ccc(C(=O)C2=C(O)C(=O)N(c3nnc(C)s3)C2c2ccc(Cl)c(Cl)c2)cc1 (stereo not shown) [Example 31] |  | 33 | 
3 | Cc1ccc(C(=O)C2=C(O)C(=O)N(c3ncc(S(=O)(=O)c4ccc([N+](=O)[O-])cc4)s3)C2c2cccc(Cl)c2)cc1 (stereo not shown) [Example 51] | 7 | 10 | 
4 | Cc1cnc(N2C(=O)C(O)=C(C(=O)c3ccc(C(C)C)cc3)C2c2ccc(OC(F)(F)F)cc2)s1 (stereo not shown) [Example 130, 3-hydroxy-4-(4-isopropyl-benzoyl)-1-(5-methyl-thiazol-2-yl)-5-(4-trifluoromethoxy-phenyl)-1,5-dihydro-pyrrol-2-one] | < 10 | < 10 | 243 to 244
5 | Cc1nnc(N2C(=O)C(O)=C(C(=O)c3ccc(C(C)C)cc3)C2c2ccc(C(F)(F)F)cc2)s1 (stereo not shown) [Example 128, 3-hydroxy-4-(4-isopropyl-benzoyl)-1-(5-methyl-[1,3,4]thiadiazol-2-yl)-5-(4-trifluoromethyl-phenyl)-1,5-dihydro-pyrrol-2-one] | < 1 | < 1 | 257
6 | Cc1cnc(N2C(=O)C(O)=C(C(=O)c3ccc(C(C)C)cc3)C2c2ccc(C(F)(F)F)cc2)s1 (stereo not shown) [Example 129, 3-hydroxy-4-(4-isopropyl-benzoyl)-1-(5-methyl-thiazol-2-yl)-5-(4-trifluoromethyl-phenyl)-1,5-dihydro-pyrrol-2-one] | < 10 | < 10 | 
7 | CC(C)(C)c1ccc(C2C(C(=O)c3ccc(Cl)cc3)=C(O)C(=O)N2c2ncc(S(=O)(=O)c3ccc([N+](=O)[O-])cc3)s2)cc1 (stereo not shown) [Example 40] | 5 | 28 | 
8 | Cc1ccc(C(=O)C2=C(O)C(=O)N(c3ncc(S(=O)(=O)N(C)C)s3)C2c2ccc(C(C)C)cc2)cc1 (stereo not shown) [Example 39, 2-[3-hydroxy-5-(4-isopropyl-phenyl)-4-(4-methyl-benzoyl)-2-oxo-2,5-dihydro-pyrrol-1-yl]-thiazole-5-sulfonic acid dimethylamide] | 16 |  | 237 to 241
9 | CN(C)c1ccc(C(=O)C2=C(O)C(=O)N(c3ncc(S(=O)(=O)c4ccc([N+](=O)[O-])cc4)s3)C2c2ccc(C(C)(C)C)cc2)cc1 (stereo not shown) [Example 55, 5-(4-tert-butyl-phenyl)-4-(4-dimethylamino-benzoyl)-3-hydroxy-1-[5-(4-nitro-benzenesulfonyl)-thiazol-2-yl]-1,5-dihydro-pyrrol-2-one] | 4 | 7 | 
10 | CCc1ccc(C2C(C(=O)c3ccco3)=C(O)C(=O)N2c2ncc(S(=O)(=O)c3ccc([N+](=O)[O-])cc3)s2)cc1 (stereo not shown) [Example 104, 5-(4-ethyl-phenyl)-4-(furan-2-carbonyl)-3-hydroxy-1-[5-(4-nitro-benzenesulfonyl)-thiazol-2-yl]-1,5-dihydro-pyrrol-2-one] | < 10 | < 10 | 
11 | COc1ccc(C(=O)C2=C(O)C(=O)N(c3nnc(C(C)C)s3)C2c2ccc(C(C)(C)C)cc2)cc1 (stereo not shown) [Example 35, 5-(4-tert-butyl-phenyl)-3-hydroxy-1-(5-isopropyl-[1,3,4]thiadiazol-2-yl)-4-(4-methoxy-benzoyl)-1,5-dihydro-pyrrol-2-one] | 4 |  | 257
12 | CC(C)c1ccc(C(=O)C2=C(O)C(=O)N(c3ncc(Sc4ccc([N+](=O)[O-])cc4)s3)C2c2ccc(OC(F)(F)F)cc2)cc1 (stereo not shown) [Example 131, 3-hydroxy-4-(4-isopropyl-benzoyl)-1-[5-(4-nitro-phenylsulfanyl)-thiazol-2-yl]-5-(4-trifluoromethoxy-phenyl)-1,5-dihydro-pyrrol-2-one] | 13 |  | 238
13 | CC(C)c1ccc(C(=O)C2=C(O)C(=O)N(c3ncc(S(=O)(=O)c4ccc([N+](=O)[O-])cc4)s3)C2c2ccc(C(F)(F)F)cc2)cc1 (stereo not shown) [Example 126, 3-hydroxy-4-(4-isopropyl-benzoyl)-1-[5-(4-nitro-benzenesulfonyl)-thiazol-2-yl]-5-(4-trifluoromethyl-phenyl)-1,5-dihydro-pyrrol-2-one] | < 10 |  | 300 to 302
14 | Cc1ccc(C(=O)C2=C(O)C(=O)N(c3ncc(S(=O)(=O)c4ccc([N+](=O)[O-])cc4)s3)C2c2ccc(C(C)C)cc2)cc1 (stereo not shown) [Example 10] | 2 | 8 | 
15 | COc1ccc(C(=O)C2=C(O)C(=O)N(c3nnc(C)s3)C2c2ccc(C(C)(C)C)cc2)cc1 (stereo not shown) [Example 3] | 7 | 15 | 
16 | COC(=O)c1ccc(C2C(C(=O)c3ccc(C)cc3)=C(O)C(=O)N2c2ncc(S(=O)(=O)c3ccc([N+](=O)[O-])cc3)s2)cc1 (stereo not shown) [Example 4, 4-{4-hydroxy-3-(4-methyl-benzoyl)-1-[5-(4-nitro-benzenesulfonyl)-thiazol-2-yl]-5-oxo-2,5-dihydro-1H-pyrrol-2-yl}-benzoic acid methyl ester] | 10 |  | 249 to 251
17 | Cc1ccc(C(=O)C2=C(O)C(=O)N(c3nnc(C)s3)C2c2ccc(C(C)C)cc2)cc1 (stereo not shown) [Example 54] | 13 | 11 | 
18 | COc1ccc(C(=O)C2=C(O)C(=O)N(c3nnc(C)s3)C2c2ccc(OC(F)(F)F)cc2)cc1 (stereo not shown) [Example 20, 3-hydroxy-4-(4-methoxy-benzoyl)-1-(5-methyl-[1,3,4]thiadiazol-2-yl)-5-(4-trifluoromethoxy-phenyl)-1,5-dihydro-pyrrol-2-one] | 4 |  | 245 to 247
